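A five-concentration, 48-hour dose response in 96-well plates underlies each endpoint, interpolated linearly between surrounding concentrations. GI50 = concentration required for 50% inhibition of growth.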 Calls of active or inactive are those of the source. No stated cut-off is given here; in the data, active = GI50 up to about 1.1 µM and inactive = higher.
Assays:
Assay in all cases: NCI-60 cell line screen, 48 h
[1] = system: HT-29
[2] = system: CAKI-1
[3] = system: MDA-MB-435
[4] = system: A549
[5] = system: TK-10
[6] = system: NCI/ADR-RES
[7] = system: KM12
[8] = system: SNB-19
[9] = system: HCT-15
[10] = system: HL-60
[11] = system: NCI-H522
[12] = system: SK-OV-3
[13] = system: M14
[14] = system: NCI-H460
[15] = system: MDA-N
[16] = system: Hs-578T
[17] = system: HCT-116
[18] = system: BT-549
[19] = system: OVCAR-3

SMILES | GI50 [1] | GI50 [2] | GI50 [3] | GI50 [4] | GI50 [5] | GI50 [6] | GI50 [7] | GI50 [8] | GI50 [9] [µM] | GI50 [10] | GI50 [11] | GI50 [12] | GI50 [13] | GI50 [14] | GI50 [15] | GI50 [16] | GI50 [17] | GI50 [18] | GI50 [19]
C[C@]1(O)CC[C@H]2[C@@H]3CCc4cc(O)ccc4[C@H]3CC[C@@]21C | 6.7 µM (inactive) | 3.62 µM (inactive) | 0.186 µM (active) | 3.94 µM (inactive) | 0.826 µM (active) | 1.99 µM (inactive) | 0.308 µM (active) | 92.3 µM (inactive) | 1.15 | 0.362 µM (active) | 0.991 µM (active) | 89.5 µM (inactive) | 1.18 µM (inactive) | 1.36 µM (inactive) | 0.186 µM (active) | 1.19 µM (inactive) |  |  | 
CCOC(=O)C1(CO)CSCCSC1 | > 100 µM (inactive) |  | > 100 µM (inactive) | > 100 µM (inactive) | > 100 µM (inactive) | > 100 µM (inactive) | > 100 µM (inactive) | > 100 µM (inactive) | > 100 |  | > 100 µM (inactive) | > 100 µM (inactive) |  | > 100 µM (inactive) | > 100 µM (inactive) | > 100 µM (inactive) | > 100 µM (inactive) |  | 
O=C(/C=C/c1ccc(O)c(O)c1)NCCc1ccc(-c2ccccc2)cc1 | 63.5 µM (inactive) | 40.8 µM (inactive) |  | > 100 µM (inactive) | 19.1 µM (inactive) | 64.7 µM (inactive) | 30.8 µM (inactive) | > 100 µM (inactive) | > 100 | 28.3 µM (inactive) | > 100 µM (inactive) | > 100 µM (inactive) | 33.4 µM (inactive) | 48.9 µM (inactive) |  | > 100 µM (inactive) | 27.3 µM (inactive) | 74.5 µM (inactive) | 20.4 µM (inactive)
Cc1c(C)n(-c2ccccc2)c2nc(S(C)(=O)=O)nc(S(C)(=O)=O)c12 | 1.92 µM (inactive) | 0.171 µM (active) | 1.79 µM (inactive) | 16 µM (inactive) | 1.58 µM (inactive) | 23.1 µM (inactive) | 13.7 µM (inactive) | 3.3 µM (inactive) | 1.61 | 1.58 µM (inactive) | 1.75 µM (inactive) | 19.6 µM (inactive) | 1.62 µM (inactive) | 16.9 µM (inactive) | 1.64 µM (inactive) | 16.1 µM (inactive) | 1.53 µM (inactive) |  | 1.6 µM (inactive)
COc1cc(/C=c2\sc3n(c2=O)C(c2ccc(Cl)cc2)C2=C(CCCC2C)N=3)cc(OC)c1OC (centres undefined) | > 100 µM (inactive) | > 100 µM (inactive) | > 100 µM (inactive) | > 100 µM (inactive) | > 100 µM (inactive) |  | > 100 µM (inactive) | > 100 µM (inactive) | > 100 | > 100 µM (inactive) |  | > 100 µM (inactive) | > 100 µM (inactive) |  | > 100 µM (inactive) | > 100 µM (inactive) | > 100 µM (inactive) |  | 
c1ccc(CSCCC(SCc2ccccc2)SCc2ccccc2)cc1 | > 10 µM (inactive) | > 10 µM (inactive) |  | > 10 µM (inactive) | > 10 µM (inactive) | > 10 µM (inactive) | > 10 µM (inactive) | > 10 µM (inactive) | > 10 | > 10 µM (inactive) | > 10 µM (inactive) | > 10 µM (inactive) | > 10 µM (inactive) | > 10 µM (inactive) | > 10 µM (inactive) | > 10 µM (inactive) | > 10 µM (inactive) |  | > 10 µM (inactive)
COc1ccc2c(c1OC)OC[C@@H](C1=CC(=O)C=C(O)C1=O)C2 | 17.7 µM (inactive) |  | 8.61 µM (inactive) | 18.2 µM (inactive) | 14.2 µM (inactive) | 24.5 µM (inactive) | 13 µM (inactive) | 16 µM (inactive) | 14.7 | 0.641 µM (active) | 2.7 µM (inactive) | 16.6 µM (inactive) | 12.4 µM (inactive) | 11.8 µM (inactive) |  | 20.6 µM (inactive) | 4.7 µM (inactive) | 12.8 µM (inactive) | 7.62 µM (inactive)
O=c1[nH]c(=O)n(C2OC(CO)C(O)C2O)c2c1CCCC2 (centres undefined) | > 100 µM (inactive) | > 100 µM (inactive) | > 100 µM (inactive) | > 100 µM (inactive) | > 100 µM (inactive) | > 100 µM (inactive) | > 100 µM (inactive) | > 100 µM (inactive) | > 100 | > 100 µM (inactive) | > 100 µM (inactive) | > 100 µM (inactive) | > 100 µM (inactive) | > 100 µM (inactive) | > 100 µM (inactive) | > 100 µM (inactive) | > 100 µM (inactive) |  | > 100 µM (inactive)
CO/N=C(/C)c1cccc(Nc2nc3ccc(Cl)cc3c3[nH]c4ccccc4c23)c1 |  | 10.4 µM (inactive) | 8.57 µM (inactive) | 12.8 µM (inactive) |  | 14.3 µM (inactive) | 3.97 µM (inactive) | 15 µM (inactive) | 9.73 | 13.2 µM (inactive) | 4.75 µM (inactive) | 21.8 µM (inactive) | 6.92 µM (inactive) | 4.31 µM (inactive) | 11.8 µM (inactive) | 16.7 µM (inactive) | 4.21 µM (inactive) |  | 4.62 µM (inactive)
COc1ccc(-c2cc(-c3ccc(Nc4ccnc5cc(Cl)ccc45)cc3)nc(N)c2C#N)cc1 |  | > 100 µM (inactive) | > 100 µM (inactive) | > 100 µM (inactive) | > 100 µM (inactive) | > 100 µM (inactive) | > 100 µM (inactive) | > 100 µM (inactive) | > 100 | > 100 µM (inactive) | > 100 µM (inactive) | > 100 µM (inactive) | > 100 µM (inactive) | > 100 µM (inactive) |  |  | > 100 µM (inactive) | > 100 µM (inactive) | > 100 µM (inactive)
CC(C)(C)C(=O)/C=C(\OB(F)F)C(C)(C)C | > 100 µM (inactive) | > 100 µM (inactive) | > 100 µM (inactive) | > 100 µM (inactive) | > 100 µM (inactive) | > 100 µM (inactive) | > 100 µM (inactive) | > 100 µM (inactive) | > 100 | > 100 µM (inactive) | > 100 µM (inactive) | > 100 µM (inactive) | > 100 µM (inactive) | > 100 µM (inactive) | > 100 µM (inactive) | > 100 µM (inactive) | > 100 µM (inactive) |  | > 100 µM (inactive)
O=C(CCCN1CCC2(CC1)CC(c1ccccc1)OC2=O)c1ccc(F)cc1 (centres undefined) | 9.06 µM (inactive) | 24.5 µM (inactive) | 41.3 µM (inactive) | > 100 µM (inactive) | 59 µM (inactive) | 92 µM (inactive) | 35 µM (inactive) | 39.2 µM (inactive) | 37.2 | 25.6 µM (inactive) | > 100 µM (inactive) | > 100 µM (inactive) | 15.8 µM (inactive) | 48.1 µM (inactive) | 49.4 µM (inactive) | 40.8 µM (inactive) | 33.8 µM (inactive) |  | 33.3 µM (inactive)
O/N=C1/CC2(N3CCOCC3)C3CC/C(=N\O)C2CC1(Cc1ccccc1)C3 (centres undefined) | 95.9 µM (inactive) | > 100 µM (inactive) | > 100 µM (inactive) | > 100 µM (inactive) |  | > 100 µM (inactive) | > 100 µM (inactive) | > 100 µM (inactive) | > 100 | 67 µM (inactive) | > 100 µM (inactive) | > 100 µM (inactive) | > 100 µM (inactive) | > 100 µM (inactive) | > 100 µM (inactive) |  | 44.5 µM (inactive) |  | > 100 µM (inactive)
C[C@H]1C[C@H]2[C@@H]3CCC4=CC(=O)C=C[C@]4(C)C3=CC[C@]2(C)[C@@]1(O)C(=O)CO | > 100 µM (inactive) | > 100 µM (inactive) | > 100 µM (inactive) | > 100 µM (inactive) | > 100 µM (inactive) | > 100 µM (inactive) | > 100 µM (inactive) | > 100 µM (inactive) | > 100 | 42 µM (inactive) | 68.2 µM (inactive) | > 100 µM (inactive) | > 100 µM (inactive) | > 100 µM (inactive) | > 100 µM (inactive) | > 100 µM (inactive) | > 100 µM (inactive) |  | 
COC(=O)[C@@H]1CN(C(=O)c2ccccc2)C(=O)N1 | > 100 µM (inactive) | > 10 µM (inactive) | > 100 µM (inactive) | > 100 µM (inactive) | > 100 µM (inactive) | > 100 µM (inactive) | > 100 µM (inactive) | > 100 µM (inactive) |  | > 100 µM (inactive) | > 100 µM (inactive) |  | > 100 µM (inactive) | > 100 µM (inactive) | > 100 µM (inactive) | > 100 µM (inactive) | > 100 µM (inactive) |  | > 100 µM (inactive)
O=C1CC(c2ccc(Cl)cc2)Oc2ccccc21 (centres undefined) | 8.71 µM (inactive) | 26.3 µM (inactive) | 36.8 µM (inactive) |  | 27.4 µM (inactive) | 16.1 µM (inactive) | 12.9 µM (inactive) | 26.8 µM (inactive) | 17 | 10.7 µM (inactive) |  | 19.4 µM (inactive) | 17.1 µM (inactive) | 19.8 µM (inactive) |  | 15 µM (inactive) | 37.3 µM (inactive) |  | 
Nc1ncc(Cc2ccc3c(c2)OCO3)c(N)n1 | > 100 µM (inactive) | > 100 µM (inactive) | > 100 µM (inactive) | > 100 µM (inactive) | > 100 µM (inactive) | > 100 µM (inactive) | > 100 µM (inactive) | > 100 µM (inactive) | > 100 | 73.5 µM (inactive) |  | > 100 µM (inactive) | > 100 µM (inactive) | > 100 µM (inactive) | > 100 µM (inactive) | > 100 µM (inactive) | > 100 µM (inactive) |  | > 100 µM (inactive)
